One series has as its target LSD1 (Homo sapiens, UniProt O60341). Briefly: LSD1 Demethylase Profiling (HRP/Amplex Red). In kind it is biochemical. To be noted: for LSD1 inhibition (in words): 10-dose, 3-fold serial dilution starting at 100 μM, 10 μM Histone H3 (1-21) K4me2 peptide. As to the method:
Formulation 2 (4× diluted) was tested against positive control tranylcypromine for LSD1 inhibition activity. […] The production of FAD-dependent H2O2 as a result of demethylase activity of LSD1 is measured by coupling with HRP and Amplex Red and fluorescence was measured using the EnVision plate reader at Ex/Em=535/590 nm. 10 μM Histone H3 (1-21) K4me2 peptide was used as the standard substrate. Data was represented at the percentage of LSD1 enzymatic activity inhibition relative to DMSO controls and a curve fit for the control compound.
Hydroxytyrosol was tested against positive control tranylcypromine for LSD1 inhibition activity. […] The production of FAD-dependent H2O2 as a result of demethylase activity of LSD1 is measured by coupling with HRP and Amplex Red and fluorescence was measured using the EnVision plate reader at Ex/Em=535/590 nm. 10 μM Histone H3 (1-21) K4me2 peptide was used as the standard substrate. Data was represented at the percentage of LSD1 enzymatic activity inhibition relative to DMSO controls and a curve fit for the control compound.

The test system of series [1] is K562 cells. Briefly: Total Antioxidant Capacity Assay, K562. To be noted: 50 μM hydroxytyrosol or Formulation 2 (4× diluted), 24 hours. In kind it is cell-based, human.
Series [2] has as its system K562 cells. Briefly: Cell viability (Cell-Titer Blue), K562. In kind it is cell-based, human. The procedure:
Cells were seeded at densities of 7,500 cells/in black flat bottom 96-well plates (Nalge Nunc, Penfield, N.Y., USA) and treated with a dose response of hydroxytyrosol (0-200 μM), oleuropein (0-800 μM), tyrosol (0-1000 μM) and homovanilic acid (0-1000 μM) for 24 hours at 37° C., 5% (v/v) CO2. Cell viability was determined after 24 hour exposure to hydroxytyrosol and measured using the Cell-Titer Blue® Assay kit (Promega, Madison, Wis., USA) according to the manufacturer's instructions. Cell-Titer Blue reagent was added to each well and incubated for 4 hours at 37° C., 5% CO2, before reading fluorescence intensity (550 nm excitation; 615 nm emission) using the Perkin Elmer Victor3 (Perkin Elmer, MA, USA) multi-label plate reader. Alternatively Cells were seeded at densities of 7,500 cells/in black flat bottom 96-well plates (Nalge Nunc, Penfield, N.Y., USA) and treated with 100 μM hydroxytyrosol for 24 hours at 37° C., 5% (v/v) CO2. […] Fluorescence intensity (λex=550 nm and λem=615 nm) was determined using a Perkin Elmer Victor3 multilabel microplate counter (PerkinElmer, Waltham, Mass., USA). Data were expressed as % relative cell viability compared to untreated cells after correction of subtracting the media control fluorescence reading.

Structures are written as SMILES.

Consider `OCCc1ccc(O)c(O)c1` [HT, 4-(2-hydroxyethyl)-1,2-benzenediol], for which the “LSD1 inhibition (in words)” value on LSD1 (listed as Hydroxytyrosol) was “Hydroxytyrosol is a potent”; on LSD1 (listed as hydroxytyrosol) it was “potent inhibitor of LSD1”. Further, at LSD1 (positive control tranylcypromine), the “LSD1 inhibition compared with tranylcypromine” value is listed as “more effective LSD1 inhibitor against tranylcypromine”. The total antioxidant capacity entry in the series on K562 cells [1] was “deplete total antioxidant capacity”. In addition, the “cell viability of K562 cells” value in the series on K562 cells [2] (20 or 100 μM, 24 hours) is listed as “significantly reduced in a dose dependent manner”. Moreover, the “effect on the cytotoxicity of doxorubicin” value with K562 cells [2] (K562, hydroxytyrosol pre-treatment 24 hours, then doxorubicin) is “enhances the cytotoxicity of doxorubicin”.

Source of the values: patent publication US10231939B2, “Hydroxytyrosol and oleuropein compositions for induction of DNA damage, cell death and LSD1 inhibition” (priority 2012, dated 2019).
